Like-named read-outs stand apart in the source and are kept apart here.
Tests used:
[1] = Liver function, ALT, AST, bilirubin in cynomolgus monkeys (Example 45); type: in vivo; details: plasma
Protocol: Groups, each consisting of two male and three female monkeys, were injected subcutaneously with ISIS 416838, ISIS 416850, ISIS 416858, ISIS 416864, or ISIS 417002 in escalating doses. Antisense oligonucleotide was administered to the monkeys at 5 mg/kg three times per a week for week 1; 5 mg/kg twice per week for weeks 2 and 3; 10 mg/kg three times per week for week 4; 10 mg/kg twice per week for weeks 5 and 6; 25 mg/kg three times per week for week 7; and 25 mg/kg twice per week for weeks 8, 9, 10, 11, and 12. One control group, consisting of two male and three female monkeys, was injected subcutaneously with PBS according to the same dosing regimen. An additional experimental group, consisting of two male and three female monkeys, was injected subcutaneously with ISIS 416850 in a chronic, lower dose regimen. Antisense oligonucleotide was administered to the monkeys at 5 mg/kg three times per week for week 1; 5 mg/kg twice per week for week 2 and 3; 10 mg/kg three times per week for week 4; and 10 mg/kg twice per week for weeks 5 to 12. Body weights were measured weekly. Blood samples were collected 14 days and 5 days before the start of treatment and subsequently once per week for Factor 11 protein activity analysis in plasma, fibrinogen measurement, PT and aPTT measurements, bleeding times, and measurement of various hematologic factors. On day 85, the monkeys were euthanized by exsanguination while under deep anesthesia, and organs harvested for further analysis.
The ISIS oligonucleotide, ISIS 416850, given with the chronic dose regimen is distinguished from the other oligonucleotides with an asterisk (*).

[2] = mouse, in vivo, sc, 50 mg/kg
[3] = Tolerability in CD1 mice: body weight and organ weight (Example 41); details: 50 mg/kg s.c. twice per week for 6 weeks
[4] = Tolerability in CD1 mice: hematology assays (Example 41); details: 50 mg/kg s.c. twice per week for 6 weeks, blood
[5] = day 22, chronic dose regimen (*)
[6] = day 22, escalating dose regimen
[7] = day 43, chronic dose regimen (*)
[8] = day 43, escalating dose regimen
[9] = day 64, escalating dose regimen
[10] = day 85, escalating dose regimen
[11] = day −14, chronic dose regimen (*)
[12] = day −14, escalating dose regimen

ISIS 416850: MOE gapmer, nucleobases 1275 to 1318 of SEQ ID NO: 1 (Table 8) (antisense TGCACAGTTTCTGGCAGGCC; MOE gapmer, wing and gap sizes not given here)
ALT [1, 5]: 42 IU/L
AST [1, 5]: 39 IU/L
Bilirubin [1, 5]: 0.19 mg/dL
ALT [1, 6]: 41 IU/L
AST [1, 6]: 45 IU/L
Bilirubin [1, 6]: 0.13 mg/dL
ALT [1, 7]: 41 IU/L
AST [1, 7]: 40 IU/L
Bilirubin [1, 7]: 0.18 mg/dL
ALT [1, 8]: 43 IU/L
AST [1, 8]: 50 IU/L
Bilirubin [1, 8]: 0.13 mg/dL
ALT [1, 9]: 60 IU/L
AST [1, 9]: 56 IU/L
Bilirubin [1, 9]: 0.14 mg/dL
ALT [1, 10]: 75 IU/L
AST [1, 10]: 82. IU/L
Bilirubin [1, 10]: 0.14 mg/dL
ALT [1, 11]: 80 IU/L
AST [1, 11]: 100 IU/L
Bilirubin [1, 11]: 0.28 mg/dL
ALT [1, 12]: 54 IU/L
AST [1, 12]: 81 IU/L
Bilirubin [1, 12]: 0.21 mg/dL
HCT [2]: 49%
Lymphocyte [2]: 4004 cells/μL
Neutrophil [2]: 1144 cells/μL
Platelets [2]: 916 10^3/μL
RBC [2]: 10 10^6/μL
WBC [2]: 5 10^3/μL
hemoglobin [2]: 15 g/dL
monocytes [2]: 156 cells/μL
body weight ([3]; increase in grams over the PBS control weight taken before the start of treatment): 11 g
Kidney weight ([3]; percentage of the body weight): 1.5%
Liver weight ([3]; percentage of the body weight): 6%
Spleen weight ([3]; percentage of the body weight): 0.4%
HCT [4]: 50%
Lymphocyte [4]: 4710
Neutrophil [4]: 1314
Platelets [4]: 614
RBC [4]: 9.8
WBC [4]: 6
hemoglobin [4]: 14.8 g/dL

Reference: patent publication US20230263822A1, “MODULATION OF FACTOR 11 EXPRESSION” (Ionis Pharmaceuticals, Inc., priority 2008, published 2023)
